In patent US20080108697A1, “Device for packaging an oxaliplatin solution” (priority 2001, published 2008):

Legend:
[1] = Stability of aqueous oxaliplatin preparations in type I glass bottles under normal conditions (25° C., 60% relative humidity), total impurities by HPLC; assay type: physicochemical; details: for Level of impurity 5 years: 2 mg/ml, 50 ml bottle (ratio 0.12); for Level of impurity 5 years / Level of impurity 1 month / Level of impurity 2.5 months / Level of impurity 4 months / Level of impurity 5.5 months / Level of impurity 7 months / Level of impurity 10 months: 25° C./60% RH
Experimental: To carry out this trial, four series of bottles, consisting of a colorless type I glass, all of cylindrical shape but of different volumes, were used. Table 2 assembles, for each series of bottles, their so-called “useful” capacity, their so-called “brim” capacity, the inner diameter of these bottles, that of their neck and their height.
These bottles, used for the first time, were subjected beforehand to three cycles of washing and rinsing with hot water heated to about 50° C. and water of so-called PI grade before being dried.
Three oxaliplatin stock solutions at concentrations of 2 mg/ml, 5 mg/ml and 7 mg/ml, respectively, were prepared in the usual manner using PI grade water as solvent. No particular stabilizing agent was used.
Aliquots of these preparations were collected and then transferred under aseptic filling conditions into different bottles so as to reach the respective level corresponding to the heights indicated below. The bottles were then hermetically closed by seaming a cap.
For studies of stability under normal conditions, a first portion of these bottles were then placed in a first chamber thermostated at a temperature of 25° C. and at a relative humidity of 60%. These bottles were maintained upright and at rest without particular stirring for the periods indicated below.
Samples were collected at the periods indicated and then analyzed by high-performance liquid chromatography according to a conventional method in order to quantify the level of noncharacterized total impurities, expressed as a percentage by weight, relative to the quantities of oxaliplatin present in each of the samples.
This study was performed on groups of bottles having a useful capacity of 5 ml, 15 ml and 20 ml, respectively, filled as described above with aliquots of a stock solution at a concentration of 5 mg/ml, and then stored under the conditions mentioned above for a period of at least 10 months.
Samples were collected at periods of 1 month, and then 2.5 months, 4 months, 5.5 months, 7 months and 10 months, respectively, after bottling.
This study was performed as above, with the difference that the bottles were loaded with aliquots of a stock solution at a concentration of 7 mg/ml and samples were collected at the same periods.
This study was performed on three batches of bottles having the same useful capacity of 50 ml, filled as described above with aliquots of the same volume of a stock solution at a concentration of 2 mg/ml, and then stored under the conditions mentioned above for a period of 5 years. At the end of this period, samples were collected for analysis.

[2] = Stability study under accelerated conditions (40° C., 75% humidity); assay type: physicochemical; details: aqueous solution in the selected bottles and filling conditions, humidity 75%
Experimental: Finally, it will be noted that the applicant has carried out a study of stability under accelerated conditions intended to anticipate stabilities on a scale of 3 years. To this effect, bottles were placed in a chamber thermostated at a temperature of 40° C. and in an atmosphere having a humidity of 75%. Samples were regularly collected and then analyzed.

[3] = plastic material free of PVC in direct contact; period of at least one year; cited from earlier work
[4] = 5 mg/ml, 5 ml bottle (ratio 0.26)
[5] = 5 mg/ml, 15 ml bottle (ratio 0.20)
[6] = 5 mg/ml, 20 ml bottle (ratio 0.17)
[7] = deduced from curve of FIG. 1 (4 months), c=5 mg/ml
[8] = deduced from curve of FIG. 2 (4 months), printed c=5 mg/ml

## O=C1[O][Pt]2([NH][C@@H]3CCCC[C@H]3[NH]2)[O]C1=O [oxaliplatin, Oxaliplatin]
[1]; batch 1
  Level of impurity 5 years: 1.47 % by weight
[1]; batch 2
  Level of impurity 5 years: 1.56 % by weight
[1]; batch 3
  Level of impurity 5 years: 1.55 % by weight
[1]; 5 mg/ml aqueous solution, bottle useful capacity 5 ml (surface area/volume ratio 0.26)
  Level of impurity 1 month: 2.34 % by weight
[1]; [4]
  Level of impurity 2.5 months: 2.55 % by weight
  Level of impurity 4 months: 2.89 % by weight
  Level of impurity 5.5 months: 2.70 % by weight
  Level of impurity 7 months: 3.19 % by weight
  Level of impurity 10 months: 3.64 % by weight
[1]; [5]
  Level of impurity 1 month: 1.15 % by weight
  Level of impurity 2.5 months: 1.16 % by weight
  Level of impurity 4 months: 1.23 % by weight
  Level of impurity 5.5 months: 1.50 % by weight
  Level of impurity 7 months: 1.56 % by weight
  Level of impurity 10 months: 1.59 % by weight
[1]; [6]
  Level of impurity 1 month: 1.06 % by weight
  Level of impurity 2.5 months: 1.11 % by weight
  Level of impurity 4 months: 1.13 % by weight
  Level of impurity 5.5 months: 1.38 % by weight
  Level of impurity 7 months: 1.42 % by weight
  Level of impurity 10 months: 1.45 % by weight
[1]; 7 mg/ml, 5 ml bottle
  Level of impurity 1 month: 1.87 % by weight
  Level of impurity 2.5 months: 2.09 % by weight
  Level of impurity 4 months: 2.33 % by weight
  Level of impurity 5.5 months: 2.56 % by weight
  Level of impurity 7 months: 2.75 % by weight
  Level of impurity 10 months: 2.98 % by weight
[1]; 7 mg/ml, 15 ml bottle
  Level of impurity 1 month: 0.96 % by weight
  Level of impurity 2.5 months: 1.03 % by weight
  Level of impurity 4 months: 1.12 % by weight
  Level of impurity 5.5 months: 1.19 % by weight
  Level of impurity 7 months: 1.23 % by weight
  Level of impurity 10 months: 1.30 % by weight
[1]; 7 mg/ml, 20 ml bottle
  Level of impurity 1 month: 0.70 % by weight
  Level of impurity 2.5 months: 0.81 % by weight
  Level of impurity 4 months: 0.97 % by weight
  Level of impurity 5.5 months: 1.04 % by weight
  Level of impurity 7 months: 1.07 % by weight
  Level of impurity 10 months: 1.11 % by weight
[1]; [7]
  R0, theoretical maximum surface area/volume ratio for which no impurity would be quantifiable: 0.10
  constant A of R=R0+A.c.I: 0.01 ml/(mg.m)
[1]; [8]
  R0, theoretical maximum surface area/volume ratio for which no impurity would be quantifiable: 0.11
  constant A of R=R0+A.c.I: 0.009 ml/(mg.m)
[2]
  period of storage suggested by accelerated stability study: at least 36 months
[3]
  degradation on preservation in flexible bags for infusion: no degradation
